Results on 1 compound are retold here after PubChem BioAssay (NCI).

The structures appear in SMILES notation. Several values for one entry are separate records, joined by “and”; a condition that tells them apart may be missing. Equal values may be shown once.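 Protocol summary: plate cells (96-well), add compound at 5 concentrations, incubate 48 h, interpolate endpoints linearly. At the GI50, growth is halved. The concentration for full growth arrest is given as TGI.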

The test system of one assay is P388/ADR leukemia. In words: NCI tumour cell line growth inhibition, 48 h.
For a further assay, the system named is P388 leukemia. Kind of assay: NCI tumour cell line growth inhibition, 48 h.

In the case of `O=C(Nc1ccccc1)c1c(O)[nH]c(=S)[nH]c1=O`, the results for the GI50 in the assay with P388/ADR leukemia and in the assay with P388 leukemia were 46.9 µM and 67 µM, respectively. In addition, the TGI is 80.6 µM and 116 µM in the assay with P388/ADR leukemia; 57.7 µM and > 250 µM with P388 leukemia.
